Reference: article doi:10.1101/2020.07.10.197525v1 (biorxiv, 2020)

How the values were obtained:
GABAA α3β3γ2 = GABAA α3β3γ2 (Rattus norvegicus, UniProt P18508+P20236+P63079); assay: voltage clamp of Xenopus oocytes, potentiation of GABA-induced currents; format: cell-based
GABAA α3β2γ2 = GABAA α3β2γ2 (Rattus norvegicus, UniProt P18508+P20236+P63138); assay: as above; format: cell-based
Chain of GABAA α3β2γ2 (P20236 29-493): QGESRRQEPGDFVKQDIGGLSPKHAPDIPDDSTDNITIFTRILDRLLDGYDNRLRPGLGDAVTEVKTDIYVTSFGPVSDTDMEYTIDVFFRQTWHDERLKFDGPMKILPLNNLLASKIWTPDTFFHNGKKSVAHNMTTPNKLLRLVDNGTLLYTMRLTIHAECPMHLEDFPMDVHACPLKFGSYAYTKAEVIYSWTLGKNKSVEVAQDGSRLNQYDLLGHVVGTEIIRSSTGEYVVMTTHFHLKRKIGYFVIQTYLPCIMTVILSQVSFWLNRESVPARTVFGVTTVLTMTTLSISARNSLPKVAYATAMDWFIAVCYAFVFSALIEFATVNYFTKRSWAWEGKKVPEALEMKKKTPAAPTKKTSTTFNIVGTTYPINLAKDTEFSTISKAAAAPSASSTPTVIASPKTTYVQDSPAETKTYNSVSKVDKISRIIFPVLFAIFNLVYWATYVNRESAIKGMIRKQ
Chain of GABAA α3β2γ2 (P63138 26-474): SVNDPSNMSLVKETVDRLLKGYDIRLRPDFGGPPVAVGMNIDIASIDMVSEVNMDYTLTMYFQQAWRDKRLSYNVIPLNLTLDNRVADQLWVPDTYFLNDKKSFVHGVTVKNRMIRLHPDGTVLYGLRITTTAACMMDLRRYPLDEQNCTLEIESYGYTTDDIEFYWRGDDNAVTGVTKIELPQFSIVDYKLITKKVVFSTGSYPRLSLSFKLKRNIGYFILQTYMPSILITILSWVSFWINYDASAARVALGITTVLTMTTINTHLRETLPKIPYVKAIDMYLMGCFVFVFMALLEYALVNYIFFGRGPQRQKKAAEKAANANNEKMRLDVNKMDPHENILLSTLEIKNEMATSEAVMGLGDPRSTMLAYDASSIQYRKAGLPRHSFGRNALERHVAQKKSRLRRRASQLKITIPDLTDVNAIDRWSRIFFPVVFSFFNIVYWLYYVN
Chain of GABAA α3β2γ2 (P18508 39-466): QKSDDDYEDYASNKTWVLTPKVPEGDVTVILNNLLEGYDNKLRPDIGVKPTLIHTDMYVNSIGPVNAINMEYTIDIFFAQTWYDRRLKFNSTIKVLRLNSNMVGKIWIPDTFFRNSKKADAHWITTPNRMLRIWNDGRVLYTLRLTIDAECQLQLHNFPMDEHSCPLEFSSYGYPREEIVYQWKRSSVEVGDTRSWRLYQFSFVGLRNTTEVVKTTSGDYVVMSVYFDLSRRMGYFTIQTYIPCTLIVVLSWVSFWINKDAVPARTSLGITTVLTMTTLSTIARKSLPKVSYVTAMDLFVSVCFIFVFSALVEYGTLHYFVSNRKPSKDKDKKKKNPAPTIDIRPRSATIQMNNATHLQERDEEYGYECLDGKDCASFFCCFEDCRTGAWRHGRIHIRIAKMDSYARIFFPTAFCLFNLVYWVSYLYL

Chain of GABAA α3β3γ2 (P20236 29-493): as the sequence (P20236 29-493) above
Chain of GABAA α3β3γ2 (P63079 26-473): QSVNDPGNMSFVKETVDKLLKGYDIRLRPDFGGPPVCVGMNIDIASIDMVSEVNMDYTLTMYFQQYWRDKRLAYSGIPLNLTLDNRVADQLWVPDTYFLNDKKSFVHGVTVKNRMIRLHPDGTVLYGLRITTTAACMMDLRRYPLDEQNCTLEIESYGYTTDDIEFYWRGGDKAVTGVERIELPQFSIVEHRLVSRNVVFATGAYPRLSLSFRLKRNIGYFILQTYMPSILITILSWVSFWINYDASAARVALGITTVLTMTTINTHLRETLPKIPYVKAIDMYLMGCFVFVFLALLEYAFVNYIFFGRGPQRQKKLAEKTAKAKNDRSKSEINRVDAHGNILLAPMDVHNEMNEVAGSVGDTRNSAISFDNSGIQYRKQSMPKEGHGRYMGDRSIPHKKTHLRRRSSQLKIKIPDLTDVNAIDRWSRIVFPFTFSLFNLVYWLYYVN
Chain of GABAA α3β3γ2 (P18508 39-466): as the sequence (P18508 39-466) above

- EC50 (GABAA α3β3γ2): 0.13 µM
- EC50 (GABAA α3β2γ2): 0.38 µM
Structure (SMILES): CCOC(=O)c1cc(NC(=O)N(c2ccccc2)c2ccccc2)c2c(Cl)cc(Cl)cc2n1 [DCUK-OEt, 5,7-dichloro-4-([diphenylcarbamoyl]amino) quinoline-2-ethyl carboxylate]
